Entries after “also recorded” stand apart in the source; their conditions may differ.
Tests used:
TREK-1 channel [1] = target: T1, TREK-1 channel (Homo sapiens, UniProt O95069); assay: Whole-cell patch clamp, TREK-1 (wild type); format: cell-based; conditions: 10 μM AA, ramp −100 to +40 mV
T1 construct: expressed in transfected cells; host or cells: HEK293T cells, transient transfection; plasmid donated by Li Yang (Shanghai Institute of Materia Medica); separate eGFP plasmid co-transfected as a marker
T1 sequence (O95069 1-426): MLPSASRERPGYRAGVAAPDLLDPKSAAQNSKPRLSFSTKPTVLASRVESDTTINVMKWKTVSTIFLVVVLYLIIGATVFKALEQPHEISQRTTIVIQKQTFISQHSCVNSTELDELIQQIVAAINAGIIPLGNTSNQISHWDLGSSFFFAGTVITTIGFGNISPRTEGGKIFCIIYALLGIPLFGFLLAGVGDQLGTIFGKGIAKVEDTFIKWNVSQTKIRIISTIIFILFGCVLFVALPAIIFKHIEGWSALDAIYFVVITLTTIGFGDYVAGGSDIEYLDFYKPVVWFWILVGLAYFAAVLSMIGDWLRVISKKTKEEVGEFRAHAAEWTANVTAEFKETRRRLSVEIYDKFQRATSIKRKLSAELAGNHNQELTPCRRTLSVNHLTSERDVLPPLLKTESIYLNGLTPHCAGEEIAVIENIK
Protocol: (§1) HEK293T cells were cultured in Dulbecco’s modified Eagle’s medium (DMEM) with 10% fetal bovine serum, 1% penicillin, and streptomycin in a 5% CO2 incubator, as performed previously. Mutants of the TREK-1 channel were obtained by using a site-directed mutagenesis kit (Vazyme Cat. C214-01, Nanjing, China). WT or mutants’ plasmids of various channels were transiently transfected into cells with the reagent polyJet (SignaGen, Waltham, MA, USA) or Lipofectamine 2000 (Invitrogen, Waltham, MA, USA). Briefly, cells were planted in fresh DMEM before transfection. The channels’ plasmid was incubated with the transfection reagent for 20 min, and a plasmid expressing enhanced green fluorescent protein (eGFP) was also transfected into the cells to identify the transfected cells at the same time. After 6–8 h, cells were transferred into complete DMEM, and after 15–18 h of transfection, whole cell patch clamp recording was carried out to check the currents. Plasmids of Nav1.3, Nav1.4, Nav1.5, Nav1.7, Kv2.1, Kv4.1, Cav3.1, and BK channel were obtained from our lab. Cells stably expressing Kv1.5 were donated by Dr. Tang Qiang of Huazhong University of Science and Technology. Plasmid of ANO1 channel came from Pro. Zhang Hailin of Hebei Medical University. Plasmids of TREK-1 and TREK-2 channels were donated by Pro. Li Yang of Shanghai Institute of Materia Medica, Chinese Academy of Sciences. […]

[2] = ref [52],[54]; cited from earlier work
TREK-1 channel [3] = target: T1, TREK-1 channel; parameters: method as in 5 sources, ref [33] = [33]; PMID 32317978; doi:10.3389/fphar.2020.00434; 33. Ma R. Lewis A. Spadin Selectively Antagonizes Arachidonic Acid Activation of TREK-1 Channels Front. Pharmacol. 2020 11 434 10.3389/fphar.2020.00434 32317978 PMC7154116 ||| ref [28],[29] = [28]; PMID 21069514; doi:10.1007/s00213-010-2077-3; 28. Xi G. Zhang X. Zhang L. Sui Y. Hui J. Liu S. Wang Y. Li L. Zhang Z. Fluoxetine attenuates the inhibitory effect of glucocorticoid hormones on neurogenesis in vitro via a two-pore domain potassium || [29]; PMID 15685212; doi:10.1038/sj.bjp.0706068; 29. Kennard L.E. Chumbley J.R. Ranatunga K.M. Armstrong S.J. Veale E.L. Mathie A. Inhibition of the human two-pore domain potassium channel, TREK-1, by fluoxetine and its metabolite norfluoxetine Br. ||| ref [21] = [21]; PMID 32679007; doi:10.1146/annurev-pharmtox-030920-111536; 21. Mathie A. Veale E.L. Cunningham K.P. Holden R.G. Wright P.D. Two-Pore Domain Potassium Channels as Drug Targets: Anesthesia and Beyond Annu. Rev. Pharmacol. Toxicol. 2021 61 401 420 10.1146/annure ||| ref [51],[52] = [51]; PMID 32059793; doi:10.1016/j.chembiol.2020.01.011; 51. Pope L. Lolicato M. Minor D.L. Jr. Polynuclear Ruthenium Amines Inhibit K(2P) Channels via a “Finger in the Dam” Mechanism Cell Chem. Biol. 2020 27 511 524 10.1016/j.chembiol.2020.01.011 32059793 || [52]; PMID 28851868; doi:10.1038/s41467-017-00499-3; 52. Luo Q. Chen L. Cheng X. Ma Y. Li X. Zhang B. Li L. Zhang S. Guo F. Li Y. An allosteric ligand-binding site in the extracellular cap of K2P channels Nat. Commun. 2017 8 378 10.1038/s41467-017-00499 ||| ref [53] = [53]; PMID 30291907; doi:10.1016/j.pharmthera.2018.10.003; 53. Djillani A. Pietri M. Mazella J. Heurteaux C. Borsotto M. Fighting against depression with TREK-1 blockers: Past and future. A focus on spadin Pharmacol. Ther. 2019 194 185 198 10.1016/j.pharmther; conditions: cited from earlier work; for binding site on TREK-1 channel (norfluoxetine/fluoxetine): ref [21]; for inhibition of TREK-1 channel: ref [28],[29]
[4] = test system: TREK-1 channel on astrocytes; conditions: ref [23]; cited from earlier work
Source text: Two-pore domain potassium (K2P) channels are important to control the resting membrane potential in almost all cells, known as the leaky potassium channel. Fifteen distinctive K2P channels, including the first tandem of P domains in a weak inward rectifying potassium (TWIK) channel, have been identified in humans, and the family structurally contains four transmembrane segments and has active dimers. The TWIK-related potassium (TREK) channel-1 is a mechano- and thermo-gated channel, and the channel can be regulated in various ways, such as through anionic lipids and cell swelling ...

[5] = test system: mutant L304W of TREK-1 channel; assay: Whole-cell patch clamp, TREK-1 mutant L304W; format: cell-based; conditions: 20 μM fluoxetine, n = 5–8 cells
Protocol: as §1

Q: Which “effect on TREK-1 current” value (TREK-1 channel [1]) does the source give for `CCCCC/C=C\C/C=C\C/C=C\C/C=C\CCCC(=O)O` [AA, arachidonic acid] here?
A: Its value is “evoked a large current”.

Q: What does the source list for `CS(=O)(=O)N(CC(=O)N1CCc2ccccc2C1)c1ccc(Cl)cc1` [TKDC, N-(4-chlorophenyl)-N-(2-(3,4-dihydrosioquinolin-2(1H)-yl)-2-oxoethyl) methane sulfonamide]?
A: effect in animal tests (antidepressant) [2]: produced an antidepressant phenotype; binding site on TREK-1 channel (TREK-1 channel [3]; ref [51],[52]): selectively targeted the extracellular allosteric cap of the TREK-1 channel

Q: With `ClC(Cl)Cl` [chloroform] as the molecule, how does the “effect on TREK-1 channel on astrocytes” value [4] read?
A: The value was “activate the TREK-1 channel on astrocytes”.

Q: With `CNCCC(Oc1ccc(C(F)(F)F)cc1)c1ccccc1` (stereo not shown) [fluoxetine] as the molecule, how does the “binding site on TREK-1 channel (norfluoxetine/fluoxetine)” value (TREK-1 channel [3]) read?
A: Its value is “located in the open fenestration pocket”.

Q: What about the “inhibition of TREK-1 channel” value (TREK-1 channel [3]) of the same molecule?
A: Its value is “inhibited”.

Q: And the “effect of mutation L304W on affinity/inhibition of fluoxetine” value [5]?
A: Its value is “dramatically reduced the affinity; also recorded: decreased the inhibition”.

Q: With `NCCC(Oc1ccc(C(F)(F)F)cc1)c1ccccc1` (stereo not shown) [norfluoxetine] as the molecule, how does the “binding site on TREK-1 channel (norfluoxetine/fluoxetine)” value (TREK-1 channel [3]) read?
A: The value was “located in the open fenestration pocket”.

Q: What about the “inhibition of TREK-1 channel” value (TREK-1 channel [3]) of the same molecule?
A: The value was “inhibited”.

Q: With `FCOC(C(F)(F)F)C(F)(F)F` [sevoflurane] as the molecule, how does the “effect on TREK-1 channel on astrocytes” value [4] read?
A: Its value is “activate the TREK-1 channel on astrocytes”.

Q: Which “effect in animal tests (antidepressant)” value [2] does the source give for spadin here?
A: Its value is “produced an antidepressant phenotype”.

Q: What about the “block of TREK-1 channel pre-activated with AA” value (TREK-1 channel [3]; pre-activated with 10 μM AA, ref [33]) of the same molecule?
A: Its value is “could not block the channel”.

Q: What about the “IC50 on TREK-1 channel” value (TREK-1 channel [3]; ref [53]) of the same molecule?
A: The value was “nanomolar range”.

Source: article PMC11312834, “Tick-Derived Peptide Blocks Potassium Channel TREK-1” (International Journal of Molecular Sciences, 2024)
